Among the data in patent US12398178B2, “Collections of peptides, peptide agents, and methods of use thereof” (Parabilis Medicines, Inc., priority 2018, dated 2025) are EC50 and chromatographic logD values, retold here.

Structures are written as SMILES. Starred links: 1 amine or outer side, 2 acyl side, 3 side chain; linkers in the order of their positions; H or OH if unused. Positions of bridges follow the written chain, without caps; N, C: chain ends. Residues, ends and D or L forms follow the SMILES beside them. X4 = O=C(C[*:1])O[C@H]1CC[C@@H](OC(=O)C[*:2])CC1; X9 = O=C(C[*:1])O[C@@H]1CCC[C@H](OC(=O)C[*:2])C1; X6 = O=C(C[*:1])Nc1cc(Cl)c(NC(=O)C[*:2])cc1Cl; X8 = COc1cc(NC(=O)C[*:2])c(OC)cc1NC(=O)C[*:1]; X3 = O=C(C[*:1])Nc1ccccc1NC(=O)C[*:2]

The target of series [1] is T1, full-length β-Catenin (Homo sapiens, UniProt P35222).
T1 construct: Probe solution (15 nM full-length β-Catenin, 20 nM FITC labeled Axin peptide in buffer)
T1 sequence (P35222 1-781): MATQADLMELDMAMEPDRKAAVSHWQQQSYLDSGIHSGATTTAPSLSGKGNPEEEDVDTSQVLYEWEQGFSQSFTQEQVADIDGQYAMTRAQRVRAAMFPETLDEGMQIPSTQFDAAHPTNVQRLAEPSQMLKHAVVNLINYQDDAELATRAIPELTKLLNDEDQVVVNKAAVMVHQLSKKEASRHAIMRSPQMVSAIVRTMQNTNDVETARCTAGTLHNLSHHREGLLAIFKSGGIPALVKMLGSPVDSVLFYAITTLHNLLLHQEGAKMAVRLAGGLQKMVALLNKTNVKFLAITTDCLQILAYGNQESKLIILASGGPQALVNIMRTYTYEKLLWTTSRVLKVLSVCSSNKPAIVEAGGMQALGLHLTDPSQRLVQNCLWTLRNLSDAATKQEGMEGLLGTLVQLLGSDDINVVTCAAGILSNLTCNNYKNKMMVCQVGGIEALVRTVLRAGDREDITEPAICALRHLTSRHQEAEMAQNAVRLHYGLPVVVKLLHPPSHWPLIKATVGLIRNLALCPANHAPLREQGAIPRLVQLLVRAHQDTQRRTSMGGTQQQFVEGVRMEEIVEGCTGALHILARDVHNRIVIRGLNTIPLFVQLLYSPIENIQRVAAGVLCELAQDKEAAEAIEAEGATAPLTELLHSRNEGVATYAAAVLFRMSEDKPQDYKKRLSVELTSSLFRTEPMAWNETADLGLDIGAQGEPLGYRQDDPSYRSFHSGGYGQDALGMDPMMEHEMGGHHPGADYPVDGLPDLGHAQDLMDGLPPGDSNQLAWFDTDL
In words: Competition fluorescence polarization assay for binding to beta-catenin (displacement of FITC labeled Axin peptide probe). The note with it: 15 nM full-length β-Catenin, 20 nM FITC labeled Axin peptide probe, 3-fold serial dilution from 5 μM; read-out: bCat EC50. Here is the method:
Peptide assessment: In one assay for assessing binding to beta-catenin, peptide solutions were prepared in buffer (50 mM Tris pH 8.0, 250 mM NaCl, 2% glycerol, 0.5 mM EDTA, 0.02% w/v sodium azide) using a 3-fold serial dilution from 5 μM. Probe solution (15 nM full-length β-Catenin, 20 nM FITC labeled Axin peptide in buffer ([FAM-PEG1-RRWPR(S5)ILD(S5)HVRRVWR (SEQ ID NO: 44)] where the two S5 residues are stapled, as reported in: Proc Natl Acad Sci USA. 2012 Oct. 30; 109(44):17942-7)) was prepared and incubated for 5 minutes, then 40 μL per well plated in a black polystyrene 384-well plate (Corning). Equal volume of the titrated peptide was added to the plate and incubated protected from light for 15 minutes prior to read. Reads were performed on a Spectramax M5 (Molecular Devices) in duplicate.

Series [2] in a line: Measurement of LogD (CHI logD by HPLC). Type of series: physicochemical. The note with it: CHI log D, 50 mM ammonium acetate pH 7.4 / acetonitrile gradient, C-18 column, 25° C. How it is done: Measurement of LogD: LogD values were measured on a Agilent 1260 HPLC with UV detector (254, 220 nm), using a Gemini NX C-18 50×3 mm column (Phenomenex) with a 6-minute 0-100% mobile phase gradient of A) 50 mM ammonium acetate pH 7.4 and B) Acetonitrile at 25° C. with a flow rate of 1 mL/min and injection volume of 3-5 uL.

As usually defined, the EC50 is the concentration needed to bring the measured effect to its halfway point. One may read the chromatographic logD as a lipophilicity value derived from retention on a column. In the case of `CC(C)C[C@@H]1NC(=O)[C@H](C)NC(=O)[C@H](C)NC(=O)[C@H](Cc2c[nH]c3ccccc23)NC(=O)[C@H](CCC(=O)O)NC(=O)[C@@H](NC(=O)[C@H](CCCNC(=N)N)NC(=O)[C@H](Cc2c[nH]cn2)NC(=O)[C@@H](NC(=O)[C@H](C)NC(=O)[C@@H]2CCCN2C(=O)[C@H](CC(=O)O)NC(=O)[C@H](C)N)[C@@H](C)O)CSCC(=O)N(C)c2ccc(cc2)N(C)C(=O)CSC[C@@H](C(=O)N[C@@H](CCC(=O)O)C(=O)N[C@@H](CC(C)C)C(=O)N[C@H](C(N)=O)C(C)C)NC(=O)[C@H](Cc2c[nH]cn2)NC1=O` [Compound 31], in series [1], the EC50 was above 10 µM. Further, in series [2], the chromatographic logD was determined as 0.68.

Consider `CC(C)C[C@@H]1NC(=O)[C@H](C)NC(=O)[C@H](C)NC(=O)[C@H](Cc2c[nH]c3ccccc23)NC(=O)[C@H](CCC(=O)O)NC(=O)[C@@H](NC(=O)[C@H](CCCNC(=N)N)NC(=O)[C@H](Cc2c[nH]cn2)NC(=O)[C@@H](NC(=O)[C@H](C)NC(=O)[C@@H]2CCCN2C(=O)[C@H](CC(=O)O)NC(=O)[C@H](C)N)[C@@H](C)O)CSCC(=O)Nc2cc(F)c(cc2F)NC(=O)CSC[C@@H](C(=O)N[C@@H](CCC(=O)O)C(=O)N[C@@H](CC(C)C)C(=O)N[C@H](C(N)=O)C(C)C)NC(=O)[C@H](Cc2c[nH]cn2)NC1=O` [Compound 32], for which the EC50 in series [1] is 5.17 µM. Moreover, in series [2], the chromatographic logD was 0.61.

Regarding `CC(C)C[C@@H]1NC(=O)[C@H](C)NC(=O)[C@H](C)NC(=O)[C@H](Cc2c[nH]c3ccccc23)NC(=O)[C@H](CCC(=O)O)NC(=O)[C@@H](NC(=O)[C@H](CCCNC(=N)N)NC(=O)[C@H](Cc2c[nH]cn2)NC(=O)[C@@H](NC(=O)[C@H](C)NC(=O)[C@@H]2CCCN2C(=O)[C@H](CC(=O)O)NC(=O)[C@H](C)N)[C@@H](C)O)CSCC(=O)Nc2ccccc2NC(=O)CSC[C@@H](C(=O)N[C@@H](CCC(=O)O)C(=O)N[C@@H](CC(C)C)C(=O)N[C@H](C(N)=O)C(C)C)NC(=O)[C@H](Cc2c[nH]cn2)NC1=O` [Compound 35], the EC50 in series [1] was above 10 µM. For the same molecule, in series [2], the chromatographic logD is 0.77.

Consider `CC(C)C[C@@H]1NC(=O)[C@H](C)NC(=O)[C@H](C)NC(=O)[C@H](Cc2c[nH]c3ccccc23)NC(=O)[C@H](CCC(=O)O)NC(=O)[C@@H](NC(=O)[C@H](CCCNC(=N)N)NC(=O)[C@H](Cc2c[nH]cn2)NC(=O)[C@@H](NC(=O)[C@H](C)NC(=O)[C@@H]2CCCN2C(=O)[C@H](CC(=O)O)NC(=O)[C@H](C)N)[C@@H](C)O)CSCC(=O)O[C@H]2CC[C@H](CC2)OC(=O)CSC[C@@H](C(=O)N[C@@H](CCC(=O)O)C(=O)N[C@@H](CC(C)C)C(=O)N[C@H](C(N)=O)C(C)C)NC(=O)[C@H](Cc2c[nH]cn2)NC1=O` [Compound 36], for which the EC50 in series [1] is above 10 µM. Moreover, in series [2], the chromatographic logD was 0.77.

Consider `CC(C)C[C@@H]1NC(=O)[C@H](C)NC(=O)[C@H](C)NC(=O)[C@H](Cc2c[nH]c3ccccc23)NC(=O)[C@H](CCC(=O)O)NC(=O)[C@@H](NC(=O)[C@H](CCCNC(=N)N)NC(=O)[C@H](Cc2c[nH]cn2)NC(=O)[C@@H](NC(=O)[C@H](C)NC(=O)[C@@H]2CCCN2C(=O)[C@H](CC(=O)O)NC(=O)[C@H](C)N)[C@@H](C)O)CSCC(=O)O[C@@H]2CC[C@@H](C2)OC(=O)CSC[C@@H](C(=O)N[C@@H](CCC(=O)O)C(=O)N[C@@H](CC(C)C)C(=O)N[C@H](C(N)=O)C(C)C)NC(=O)[C@H](Cc2c[nH]cn2)NC1=O` [Compound 38], for which, in series [1], the EC50 is above 10 µM. This molecule had a chromatographic logD in series [2] of 0.8.

In the case of `CC(C)C[C@@H]1NC(=O)[C@H](C)NC(=O)[C@H](C)NC(=O)[C@H](Cc2c[nH]c3ccccc23)NC(=O)[C@H](CCC(=O)O)NC(=O)[C@@H](NC(=O)[C@H](CCCNC(=N)N)NC(=O)[C@H](Cc2c[nH]cn2)NC(=O)[C@@H](NC(=O)[C@H](C)NC(=O)[C@@H]2CCCN2C(=O)[C@H](CC(=O)O)NC(=O)[C@H](C)N)[C@@H](C)O)CSCC(=O)O[C@@H]2C=C[C@@H](C2)OC(=O)CSC[C@@H](C(=O)N[C@@H](CCC(=O)O)C(=O)N[C@@H](CC(C)C)C(=O)N[C@H](C(N)=O)C(C)C)NC(=O)[C@H](Cc2c[nH]cn2)NC1=O` [Compound 39], the EC50 in series [1] was above 10 µM. In series [2], the chromatographic logD is 0.75.

Molecule `CC[C@H](C)[C@@H]1NC(=O)[C@H](CC(C)C)NC(=O)[C@H](C)NC(=O)[C@H](C)NC(=O)[C@H](Cc2c[nH]cn2)NC(=O)[C@H](CCC(=O)O)NC(=O)[C@@H](NC(=O)[C@H](C)NC(=O)[C@H](Cc2c[nH]c3ccccc23)NC(=O)[C@H](CC(C)C)NC(=O)[C@H](C)NC(=O)[C@@H]2CCCN2C(=O)[C@H](CC(=O)O)NC(=O)[C@H](C)N)CSCC(=O)Nc2cc(Cl)c(cc2Cl)NC(=O)CSC[C@@H](C(=O)N[C@@H](CCC(=O)O)C(=O)N[C@H](C(=O)N[C@@H](CCC(N)=O)C(N)=O)[C@@H](C)O)NC1=O` [Compound 42] (H-ADPALWACEHAALICETQ-NH2; linker 8-15 via X6; N-terminus and C-terminus assumed) gave a chromatographic logD in series [2] of 0.84.

As to `CC[C@H](C)[C@@H]1NC(=O)[C@H](CC(C)C)NC(=O)[C@H](C)NC(=O)[C@H](C)NC(=O)[C@H](Cc2c[nH]cn2)NC(=O)[C@H](CCC(=O)O)NC(=O)[C@@H](NC(=O)[C@H](C)NC(=O)[C@H](Cc2c[nH]c3ccccc23)NC(=O)[C@H](CC(C)C)NC(=O)[C@H](C)NC(=O)[C@@H]2CCCN2C(=O)[C@H](CC(=O)O)NC(=O)[C@H](C)N)CSCC(=O)Nc2cc(OC)c(cc2OC)NC(=O)CSC[C@@H](C(=O)N[C@@H](CCC(=O)O)C(=O)N[C@H](C(=O)N[C@@H](CCC(N)=O)C(N)=O)[C@@H](C)O)NC1=O` [Compound 43] (H-ADPALWACEHAALICETQ-NH2; linker 8-15 via X8; N-terminus and C-terminus assumed), the chromatographic logD in series [2] turned out to be 0.75.

Consider `CC[C@H](C)[C@@H]1NC(=O)[C@H](CC(C)C)NC(=O)[C@H](C)NC(=O)[C@H](C)NC(=O)[C@H](Cc2c[nH]cn2)NC(=O)[C@H](CCC(=O)O)NC(=O)[C@@H](NC(=O)[C@H](C)NC(=O)[C@H](Cc2c[nH]c3ccccc23)NC(=O)[C@H](CC(C)C)NC(=O)[C@H](C)NC(=O)[C@@H]2CCCN2C(=O)[C@H](CC(=O)O)NC(=O)[C@H](C)N)CSCC(=O)Nc2ccccc2NC(=O)CSC[C@@H](C(=O)N[C@@H](CCC(=O)O)C(=O)N[C@H](C(=O)N[C@@H](CCC(N)=O)C(N)=O)[C@@H](C)O)NC1=O` [Compound 44] (H-ADPALWACEHAALICETQ-NH2; linker 8-15 via X3; N-terminus and C-terminus assumed), for which, in series [2], the chromatographic logD was found to be 0.7.

Turning to `CC[C@H](C)[C@@H]1NC(=O)[C@H](CC(C)C)NC(=O)[C@H](C)NC(=O)[C@H](C)NC(=O)[C@H](Cc2c[nH]cn2)NC(=O)[C@H](CCC(=O)O)NC(=O)[C@@H](NC(=O)[C@H](C)NC(=O)[C@H](Cc2c[nH]c3ccccc23)NC(=O)[C@H](CC(C)C)NC(=O)[C@H](C)NC(=O)[C@@H]2CCCN2C(=O)[C@H](CC(=O)O)NC(=O)[C@H](C)N)CSCC(=O)O[C@H]2CC[C@H](CC2)OC(=O)CSC[C@@H](C(=O)N[C@@H](CCC(=O)O)C(=O)N[C@H](C(=O)N[C@@H](CCC(N)=O)C(N)=O)[C@@H](C)O)NC1=O` [Compound 45] (H-ADPALWACEHAALICETQ-NH2; linker 8-15 via X4; N-terminus and C-terminus assumed), in series [2], the chromatographic logD worked out at 1.03.

As to `CC[C@H](C)[C@@H]1NC(=O)[C@H](CC(C)C)NC(=O)[C@H](C)NC(=O)[C@H](C)NC(=O)[C@H](Cc2c[nH]cn2)NC(=O)[C@H](CCC(=O)O)NC(=O)[C@@H](NC(=O)[C@H](C)NC(=O)[C@H](Cc2c[nH]c3ccccc23)NC(=O)[C@H](CC(C)C)NC(=O)[C@H](C)NC(=O)[C@@H]2CCCN2C(=O)[C@H](CC(=O)O)NC(=O)[C@H](C)N)CSCC(=O)O[C@@H]2CCC[C@@H](C2)OC(=O)CSC[C@@H](C(=O)N[C@@H](CCC(=O)O)C(=O)N[C@H](C(=O)N[C@@H](CCC(N)=O)C(N)=O)[C@@H](C)O)NC1=O` [Compound 46] (H-ADPALWACEHAALICETQ-NH2; linker 8-15 via X9; N-terminus and C-terminus assumed), the chromatographic logD in series [2] stood at 0.94.
